Reference: patent publication US7560105B1, “Dendritic cells activated in the presence of glucocorticoid hormones are capable of suppressing antigen-specific T cell responses” (Leids Universitair Medisch Centrum, priority 1999, dated 2009)

Columns and labels:
[1] = test system: human monocyte-derived DC; experiment: Cytokine detection by ELISA in DC culture supernatants; format: cell-based; settings: CD40 triggering of DEX-treated DC vs untreated
Experimental: Data are representative from 6 independent experiments.
(§1) Activation of DC though CD40 was performed with a fusion protein made of the extracellular domain of human CD40L and of the murine CD8a chain (CD 8-CD40L). The CD8-CD40L cDNA described by Garrone et al. (23) was transferred into an eukaryotic expression vector containing the hygromycin resistance gene and used for the generation of stably transfected Chinese Hamster Ovary (CHO) cells. […] DC were incubated at 5×10^5/ml/well in a 24-well plate (Costar Corp., Cambridge, Mass.) and activated in the presence of 1/10 CD8-CD40L supernatant. Cells and supernatants were analyzed after 48 h. Of note, control supernatants obtained from untransfected CHO cells or from CHO cells transfected with the CD8a cDNA lacked DC activating functions and were similar to culture medium.
Culture supernatants were analyzed in serial two-fold dilutions in duplicate. IL-12p70 was detected using a solid phase sandwich ELISA kit (Diaclone Research, Besancon, France) (sensitivity 3 pg/ml). For IL-12p40 and IFN-g detection, capture MoAb and polyclonal biotinylated detection Ab were obtained from Peter van de Meijde (BPRC, Rijswijk, NL) (sensitivity 10 pg/ml). IL-10 was detected using the Pelikine compact human IL-10 ELISA kit (CLB, Amsterdam, NL) (sensitivity 3 pg/ml).

[2] = test system: human monocyte-derived DC; experiment: DC surface phenotype by flow cytometry after CD40 ligation; format: cell-based; settings: DEX titration, data not shown
Experimental: Immature DC were generated from peripheral blood monocyte precursors (PBMC). Human PBMC from healthy donors, isolated through Ficoll-Hypaque density centrifugation were plated at 1.5×10^7 per well in 6-well plates (Costar Corp., Cambridge, Mass.) in RPMI 1640 (Life Technologies, Paisley, Scotland) supplemented with 2 mM glutamine, 100 UI/ml penicillin and 10% FCS. After 2 h at 37° C., the nonadherent cells were removed and the adherent cells were cultured in medium containing 500 U/ml IL-4 (Pepro Tech Inc. Rocky Hill, N.J.) and 800 U/ml GM-CSF (kindly provided by Dr S. Osanto, LUMC, Leiden, NL) for a total of 7 days.
as §1, with “Of note, control supernatants obtained from untransfected CHO cells or from CHO cells transfected with the CD8a cDNA lacked DC activating functions and were similar to culture medium.” left out
Cells were stained on ice with FITC or PE-conjugated mouse monoclonal antibodies (MoAb) for 30 min in PBS 1% FCS and were analyzed on a FACScan® (Becton Dickinson, San Jose, Calif.). […]

`C[C@@H]1C[C@H]2[C@@H]3CCC4=CC(=O)C=C[C@]4(C)[C@@]3(F)[C@@H](O)C[C@]2(C)[C@@]1(O)C(=O)CO` [DEX, dexamethasone] was tested, and the “enhancement of IL-10 production” value [1] was “up to 50 fold”, the “reduction of IL-12p40 production” value [1] was “up to 100 fold” and the CD40-mediated phenotypic changes ([2]; 10^-9 M) was “no effect”. For the same molecule, the CD40-mediated phenotypic changes ([2]; 10^-10) was “no effect”.
